System: VPA model
Assay: Antagonist test with naloxone in VPA model
Type: in vivo, mice
Conditions: naloxone hydrochloride 1 mg/kg s.c. 15 minutes before buprenorphine 0.003 mg/kg s.c.
Method: In the same manner as in Example 1, to the VPA model, Saline or a MOR selective antagonist, naloxone hydrochloride was subcutaneously administered so as to be 1 mg/kg as a hydrochloride, and 15 minutes after that, 0.003 mg/kg of buprenorphine was subcutaneously administered, and the amount of social behavior for 1 hour from 20 minutes after administration of buprenorphine was quantified.

## CO[C@]12CC[C@@]3(C[C@@H]1[C@](C)(O)C(C)(C)C)[C@H]1Cc4ccc(O)c5c4[C@@]3(CCN1CC1CC1)[C@H]2O5 [buprenorphine, 21-cyclopropyl-7-a-[(S)-1-hydroxy-1,2,2-trimethylpropyl]-6,14-endo-ethano-6,7,8,14 tetrahydrooripavine]
  improvement effect in social impairment with combined use of naloxone: antagonized by combined use of naloxone

From patent US20250073226A1, “USE OF OPIOID FOR TREATMENT OF AUTISM SPECTRUM DISORDERS” (priority 2021, published 2025)
